According to PubChem BioAssay AID2060891 (Molecular Pharmacology Branch, DTP, NCI, 2025):

System: K98450-129-R-PDC complex spheroid growth, percent test/control
Assay: Anticancer human tumor K98450-129-R-PDC patient-derived colon adenocarcinoma cell line growth inhibition [RAS]
Settings: for IC50: curve of first compound; for viability, T/C: stronger effect = lower value; active means viability on the fitted dose curve at most 10% of control; inactive means the rest
Summary of the method: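 Multi-cell-type spheroids: tumor cells plus HUVEC endothelial cells and mesenchymal stem cells. RAS-pathway inhibitors were combined with targeted agents, each dosed in half-log steps down from clinical Cmax, or from 10 microM when Cmax was unknown.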

[1] = second compound 0.000949 µM, first compound 0.0316 µM
[2] = second compound 0.000949 µM, first compound 0.1 µM
[3] = second compound 0.000949 µM, first compound 0.316 µM
[4] = second compound 0.000949 µM, first compound 1 µM
[5] = second compound 0.000949 µM, first compound 3.16 µM
[6] = second compound 0.000949 µM, first compound 10 µM
[7] = second compound 0.003 µM, first compound 0.0316 µM
[8] = second compound 0.003 µM, first compound 0.1 µM
[9] = second compound 0.003 µM, first compound 0.316 µM
[10] = second compound 0.003 µM, first compound 1 µM
[11] = second compound 0.003 µM, first compound 3.16 µM
[12] = second compound 0.003 µM, first compound 10 µM
[13] = second compound 0.00949 µM, first compound 0.0316 µM
[14] = second compound 0.00949 µM, first compound 0.1 µM
[15] = second compound 0.00949 µM, first compound 0.316 µM
[16] = second compound 0.00949 µM, first compound 1 µM
[17] = second compound 0.00949 µM, first compound 3.16 µM
[18] = second compound 0.00949 µM, first compound 10 µM
[19] = second compound 0.03 µM, first compound 0.0316 µM
[20] = second compound 0.03 µM, first compound 0.1 µM
[21] = second compound 0.03 µM, first compound 0.316 µM
[22] = second compound 0.03 µM, first compound 1 µM
[23] = second compound 0.03 µM, first compound 3.16 µM
[24] = second compound 0.03 µM, first compound 10 µM
[25] = second compound 0.0949 µM, first compound 0.0316 µM
[26] = second compound 0.0949 µM, first compound 0.1 µM
[27] = second compound 0.0949 µM, first compound 0.316 µM
[28] = second compound 0.0949 µM, first compound 1 µM
[29] = second compound 0.0949 µM, first compound 3.16 µM
[30] = second compound 0.0949 µM, first compound 10 µM
[31] = second compound 0.3 µM, first compound 0.0316 µM
[32] = second compound 0.3 µM, first compound 0.1 µM
[33] = second compound 0.3 µM, first compound 0.316 µM
[34] = second compound 0.3 µM, first compound 1 µM
[35] = second compound 0.3 µM, first compound 3.16 µM
[36] = second compound 0.3 µM, first compound 10 µM
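Further: spheroids exposed to agents for seven days before the viability readout.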
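Wherever viability, T/C is given: luminescence used as a proxy for viable cell amount.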

CC1(O)CCCC1n1c(=O)c(C(F)F)cc2cnc(NC3CCN(S(C)(=O)=O)CC3)nc21 (stereo not given) + CCn1c(-c2cccnc2C(C)OC)c2c3cc(ccc31)N1CCOC(CC(NC(=O)C(C(C)C)N(C)C(=O)C3(F)CCN(C(=O)C#CC(C)(C)N(C)C)CC3)C(=O)N3CCCC(N3)C(=O)OCC(C)(C)C2)C1
inactive: viability, T/C [1] 76.1% | viability, T/C [2] 64% | viability, T/C [3] 68.3% | viability, T/C [4] 59.1% | viability, T/C [5] 51.5% | viability, T/C [6] 44.4% | viability, T/C [7] 58.2% | viability, T/C [8] 55.6% | viability, T/C [9] 52.6% | viability, T/C [10] 38.6% | viability, T/C [11] 34.7% | viability, T/C [12] 31% | viability, T/C [13] 44.8% | viability, T/C [14] 38.5% | viability, T/C [15] 38.3% | viability, T/C [16] 28.5% | viability, T/C [17] 29.3% | viability, T/C [18] 27.1% | viability, T/C [19] 37.4% | viability, T/C [20] 41.1% | viability, T/C [21] 30.1% | viability, T/C [22] 26.1% | viability, T/C [23] 31.4% | viability, T/C [24] 28.1% | viability, T/C [25] 31.5% | viability, T/C [26] 31.9% | viability, T/C [27] 32.2% | viability, T/C [28] 25.3% | viability, T/C [29] 29.8% | viability, T/C [30] 22.7% | viability, T/C [31] 31.9% | viability, T/C [32] 33.7% | viability, T/C [33] 32.6% | viability, T/C [34] 26.8% | viability, T/C [35] 29.5% | viability, T/C [36] 19.6%
< 31.6 nM: IC50 (second compound 0.00949 µM) | IC50 (second compound 0.03 µM) | IC50 (second compound 0.0949 µM) | IC50 (second compound 0.3 µM)
376 nM: IC50 (second compound 0.003 µM)
4320 nM: IC50 (second compound 0.000949 µM)

CCC(CC)c1cc(NC2CCC(N)C2)n2nccc2n1 (stereo not given) + CCn1c(-c2cccnc2C(C)OC)c2c3cc(ccc31)N1CCOC(CC(NC(=O)C(C(C)C)N(C)C(=O)C3(F)CCN(C(=O)C#CC(C)(C)N(C)C)CC3)C(=O)N3CCCC(N3)C(=O)OCC(C)(C)C2)C1
2930 nM: IC50 (second compound 0.000949 µM)
inactive: viability, T/C [1] 77.1% | viability, T/C [2] 72.7% | viability, T/C [3] 73% | viability, T/C [4] 59.7% | viability, T/C [5] 52.3% | viability, T/C [6] 11.8% | viability, T/C [7] 65.2% | viability, T/C [8] 59% | viability, T/C [9] 56.8% | viability, T/C [10] 39.4% | viability, T/C [11] 36.9% | viability, T/C [12] 10.6% | viability, T/C [13] 44.4% | viability, T/C [14] 53.3% | viability, T/C [15] 48.8% | viability, T/C [16] 35.4% | viability, T/C [17] 20.8% | viability, T/C [18] 11.9% | viability, T/C [19] 33.7% | viability, T/C [20] 42.4% | viability, T/C [21] 40.2% | viability, T/C [22] 23.1% | viability, T/C [23] 20.5% | viability, T/C [24] 10.4% | viability, T/C [25] 29.9% | viability, T/C [26] 33.4% | viability, T/C [27] 38.3% | viability, T/C [28] 36.3% | viability, T/C [29] 11.8% | viability, T/C [31] 34.1% | viability, T/C [32] 36.5% | viability, T/C [33] 39.2% | viability, T/C [34] 31.3% | viability, T/C [35] 12.7%
active: viability, T/C [30] 9.38% | viability, T/C [36] 9.36%
545 nM: IC50 (second compound 0.003 µM)
< 31.6 nM: IC50 (second compound 0.00949 µM) | IC50 (second compound 0.03 µM) | IC50 (second compound 0.0949 µM) | IC50 (second compound 0.3 µM)

CCN1CCN(Cc2ccc(Nc3ncc(F)c(-c4cc(F)c5nc(C)n(C(C)C)c5c4)n3)nc2)CC1 + CCn1c(-c2cccnc2C(C)OC)c2c3cc(ccc31)N1CCOC(CC(NC(=O)C(C(C)C)N(C)C(=O)C3(F)CCN(C(=O)C#CC(C)(C)N(C)C)CC3)C(=O)N3CCCC(N3)C(=O)OCC(C)(C)C2)C1
< 3.16 nM: IC50 (second compound 0.00949 µM) | IC50 (second compound 0.03 µM) | IC50 (second compound 0.0949 µM) | IC50 (second compound 0.3 µM)
inactive: viability, T/C (second compound 0.000949 µM, first compound 0.00316 µM) 72.8% | viability, T/C (second compound 0.000949 µM, first compound 0.01 µM) 68.7% | viability, T/C [1] 70.3% | viability, T/C [2] 54.4% | viability, T/C [3] 44.9% | viability, T/C [4] 52.2% | viability, T/C (second compound 0.003 µM, first compound 0.00316 µM) 60% | viability, T/C (second compound 0.003 µM, first compound 0.01 µM) 52.6% | viability, T/C [7] 48.2% | viability, T/C [8] 39.2% | viability, T/C [9] 43% | viability, T/C [10] 47.4% | viability, T/C (second compound 0.00949 µM, first compound 0.00316 µM) 49.7% | viability, T/C (second compound 0.00949 µM, first compound 0.01 µM) 41.7% | viability, T/C [13] 38.9% | viability, T/C [14] 34.5% | viability, T/C [15] 36.6% | viability, T/C [16] 43.4% | viability, T/C (second compound 0.03 µM, first compound 0.00316 µM) 37.6% | viability, T/C (second compound 0.03 µM, first compound 0.01 µM) 37.6% | viability, T/C [19] 34.3% | viability, T/C [20] 35.3% | viability, T/C [21] 43.8% | viability, T/C [22] 45.9% | viability, T/C (second compound 0.0949 µM, first compound 0.00316 µM) 39.6% | viability, T/C (second compound 0.0949 µM, first compound 0.01 µM) 34.4% | viability, T/C [25] 34.5% | viability, T/C [26] 32.1% | viability, T/C [27] 38.9% | viability, T/C [28] 48.8% | viability, T/C (second compound 0.3 µM, first compound 0.00316 µM) 30.8% | viability, T/C (second compound 0.3 µM, first compound 0.01 µM) 32.1% | viability, T/C [31] 32.1% | viability, T/C [32] 28.6% | viability, T/C [33] 36.1% | viability, T/C [34] 41.8%
239 nM: IC50 (second compound 0.000949 µM)
13.2 nM: IC50 (second compound 0.003 µM)

Cc1nc(N2CCC3(CC2)COC(C)C3N)c(CO)nc1Sc1ccnc(N)c1Cl (stereo not given) + CCn1c(-c2cccnc2C(C)OC)c2c3cc(ccc31)N1CCOC(CC(NC(=O)C(C(C)C)N(C)C(=O)C3(F)CCN(C(=O)C#CC(C)(C)N(C)C)CC3)C(=O)N3CCCC(N3)C(=O)OCC(C)(C)C2)C1
active: viability, T/C [6] 9.55% | viability, T/C [10] 10.4% | viability, T/C [11] 8.15% | viability, T/C [12] 7.47% | viability, T/C [16] 8.57% | viability, T/C [17] 8.2% | viability, T/C [18] 6.2% | viability, T/C [22] 10.1% | viability, T/C [23] 6.29% | viability, T/C [24] 6.11% | viability, T/C [28] 8.48% | viability, T/C [29] 8.98% | viability, T/C [30] 6.05% | viability, T/C [34] 8.27% | viability, T/C [35] 8.02% | viability, T/C [36] 6.57%
41.5 nM: IC50 (second compound 0.003 µM)
365 nM: IC50 (second compound 0.000949 µM)
inactive: viability, T/C [1] 71.8% | viability, T/C [2] 64.7% | viability, T/C [3] 54.1% | viability, T/C [4] 27.5% | viability, T/C [5] 12.1% | viability, T/C [7] 53.4% | viability, T/C [8] 39% | viability, T/C [9] 16.9% | viability, T/C [13] 32.7% | viability, T/C [14] 21.6% | viability, T/C [15] 12.3% | viability, T/C [19] 26.1% | viability, T/C [20] 14.9% | viability, T/C [21] 10.7% | viability, T/C [25] 20.9% | viability, T/C [26] 16% | viability, T/C [27] 8.78% | viability, T/C [31] 21.7% | viability, T/C [32] 14.2% | viability, T/C [33] 10.3%
< 31.6 nM: IC50 (second compound 0.00949 µM) | IC50 (second compound 0.03 µM) | IC50 (second compound 0.0949 µM) | IC50 (second compound 0.3 µM)

NC1c2ccccc2OC12CCN(c1cnc3c(N4CCCc5ncccc54)n[nH]c3n1)CC2 (stereo not given) + CCn1c(-c2cccnc2C(C)OC)c2c3cc(ccc31)N1CCOC(CC(NC(=O)C(C(C)C)N(C)C(=O)C3(F)CCN(C(=O)C#CC(C)(C)N(C)C)CC3)C(=O)N3CCCC(N3)C(=O)OCC(C)(C)C2)C1
active: viability, T/C [4] 7.16% | viability, T/C [5] 6.94% | viability, T/C [6] 8.73% | viability, T/C [9] 7.71% | viability, T/C [10] 6.76% | viability, T/C [11] 6.52% | viability, T/C [12] 7.13% | viability, T/C [14] 9.32% | viability, T/C [15] 7.2% | viability, T/C [16] 6.45% | viability, T/C [17] 6.54% | viability, T/C [18] 7.85% | viability, T/C [20] 9.35% | viability, T/C [21] 7.81% | viability, T/C [22] 6.41% | viability, T/C [23] 6.04% | viability, T/C [24] 6.71% | viability, T/C [26] 8.32% | viability, T/C [27] 6.62% | viability, T/C [28] 6.26% | viability, T/C [29] 5.17% | viability, T/C [30] 7.13% | viability, T/C [32] 6.92% | viability, T/C [33] 6.83% | viability, T/C [34] 6.04% | viability, T/C [35] 5.35% | viability, T/C [36] 6.26%
< 31.6 nM: IC50 (second compound 0.000949 µM) | IC50 (second compound 0.003 µM) | IC50 (second compound 0.00949 µM) | IC50 (second compound 0.03 µM) | IC50 (second compound 0.0949 µM) | IC50 (second compound 0.3 µM)
inactive: viability, T/C [1] 44.8% | viability, T/C [2] 23.5% | viability, T/C [3] 11% | viability, T/C [7] 21.5% | viability, T/C [8] 12.4% | viability, T/C [13] 15.6% | viability, T/C [19] 12.8% | viability, T/C [25] 11% | viability, T/C [31] 9.99%
